The nature of data set [1]: Solubility comparison of the fumarate salt and free base in water. Format: physicochemical. The following applies: thermodynamic from solid; pure water, stirred overnight, filtered, HPLC. The text has this: Test sample: compound represented by formula (II) (free base) prepared by comparative experiment 2 and product prepared by embodiment 1 (compound represented by formula (I));
The tested sample was weighted and added into pure water, then stirred by a magnetic stirrer overnight, and then filtered and diluted to a certain volume for sample injection;
HPLC chromatographic conditions: acetonitrile-0.1% aqueous trifluoroacetic acid (50:50) used as mobile phase, detection wavelength 264 nm, injection volume 10 μL, flow rate 1.0 mL/min.

Data set [2] can be described thus: Stability investigation of crystal form I (XRPD, long-term placement). The data set is classed as physicochemical. The following applies: long-term 25° C., 60% RH, dark, sealed, sampling time 5 days. Here is the method:
The crystal form I sample prepared by embodiment 2 was placed in the dark, sealed and placed flat, and the stability of the sample was investigated long-term (25° C., 60% RH), sampling time was 5 days, and XRPD was used to detect whether the crystal form changed.

`CCO[C@H]1CC[C@H](NCC[C@@]2(c3ccccn3)CCOC3(CCCC3)C2)c2ccccc21.O=C(O)/C=C/C(=O)O` [Compound represented by formula (I), (1S,4S)-4-ethoxy-N-(2-((R)-9-(pyridin-2-yl)-6-oxaspiro[4.5]deca-9-yl)ethyl)-1,2,3,4-tetrahydronaphthalen-1-amine fumarate salt]: the solubility in data set [1] was 31.3 mg/mL. Also, the “XRPD peak pattern (crystal form change)” value in data set [2] is recorded as “remained unchanged”.

As for `CCO[C@H]1CC[C@H](NCC[C@@]2(c3ccccn3)CCOC3(CCCC3)C2)c2ccccc21` [Free base, (1S,4S)-4-ethoxy-N-(2-((R)-9-(pyridin-2-yl)-6-oxaspiro[4.5]deca-9-yl)ethyl)-1,2,3,4-tetrahydronaphthalen-1-amine], the solubility in data set [1] was determined as 0.0022 mg/mL.

Usually solubility stands for the dissolved amount per volume that the medium holds.

(Values after patent US11014914B2, “Opioid receptor (MOR) agonist salt, fumarate salt crystal form I thereof and preparation method thereof” (Jiangsu Hengrui Medicine Co., Ltd., priority 2017, dated 2021).)
